Results reported in ChEMBL document CHEMBL1156895 (Bioorg Med Chem Lett, 2010).
Active and inactive are the calls of the source. The calls are words filed in the database; no cut-off is given here.

Key:
Rattus norvegicus [1] = test: Antiinflammatory activity in po dosed rat assessed as inhibition of carrageenan-induced paw edema; assay type: functional
[2] = biological target: T1, Prostaglandin G/H synthase 1 (Ovis aries, UniProt P05979)
T1 sequence (P05979 whole entry): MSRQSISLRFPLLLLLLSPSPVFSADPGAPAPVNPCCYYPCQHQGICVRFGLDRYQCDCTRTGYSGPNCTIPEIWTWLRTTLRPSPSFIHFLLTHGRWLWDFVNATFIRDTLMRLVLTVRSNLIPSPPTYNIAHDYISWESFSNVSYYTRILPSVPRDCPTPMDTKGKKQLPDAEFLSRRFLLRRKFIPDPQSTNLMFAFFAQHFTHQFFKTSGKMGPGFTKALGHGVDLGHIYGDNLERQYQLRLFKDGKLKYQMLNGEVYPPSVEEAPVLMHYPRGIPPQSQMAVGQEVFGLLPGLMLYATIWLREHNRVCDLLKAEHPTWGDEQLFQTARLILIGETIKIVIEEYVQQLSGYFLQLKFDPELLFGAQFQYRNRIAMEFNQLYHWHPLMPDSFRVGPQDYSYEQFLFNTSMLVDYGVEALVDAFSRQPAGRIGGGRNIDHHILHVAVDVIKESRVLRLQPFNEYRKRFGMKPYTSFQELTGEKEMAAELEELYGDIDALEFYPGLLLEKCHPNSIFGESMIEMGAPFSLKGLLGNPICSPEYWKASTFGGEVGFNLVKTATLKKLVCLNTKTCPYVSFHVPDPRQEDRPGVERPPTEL
Description: Inhibition of ovine COX1 by enzyme immunoassay

[3] = Induction of NO release in phosphate buffer at pH 7.4; assay type: physicochemical
[4] = Induction of NO release in presence of 5 mM L-cysteine; assay type: physicochemical
Rattus norvegicus [5] = species: Rattus norvegicus; details: 100 mg/kg
Rattus norvegicus [6] = species: Rattus norvegicus; test: animal or person; details: po, read-out: INH
[7] = biological target: T2, Prostaglandin G/H synthase 1 (Ovis aries) (UniProt P05979); test: Inhibition of ovine COX1 at 100 uM by enzyme immunoassay
T2 sequence (whole entry): T1 sequence (P05979 whole entry)

[8] = Selectivity ratio of IC50 for ovine COX1 to IC50 for human recombinant COX2

Row | inhibition [7] | Ratio IC50 [8] | SMILES | ED50 (Rattus norvegicus [1]) [mg/kg] | IC50 [2] [µM] | Activity [3] [%] | Activity [4] [%] | inhibition (Rattus norvegicus [5]) | inhibition in vivo at 100 mg/kg (Rattus norvegicus [6]) [%]
1 | – | – | CC(C)Cc1ccc(C(C)C(=O)O)cc1 (stereo unspecified) [IBUPROFEN] | 67.4 | – | – | – | – | –
2 | – | – | CS(=O)(=O)c1ccc(-n2nc(C(F)(F)F)cc2C2=CCN(CCCCO[N+](=O)[O-])CC2)cc1 | 118 | 34.7 | 3.1 | 3.8 | – | –
3 | – | – | NS(=O)(=O)c1ccc(-n2nc(C(F)(F)F)cc2C2=CCN(CCCCO[N+](=O)[O-])CC2)cc1 | – | 16.2 | 5.8 | 7.1 | inactive | –
4 | – | – | O=[N+]([O-])OCC(CO[N+](=O)[O-])O[N+](=O)[O-] [NITROGLYCERIN] | – | – | 2.8 | 10.1 | – | –
5 | – | – | NS(=O)(=O)c1ccc(-n2nc(C(F)(F)F)cc2C2CCN(CCCCO[N+](=O)[O-])CC2)cc1 | – | 19.8 | 2.4 | 3.1 | – | 9
6 | inactive | > 6 | CS(=O)(=O)c1ccc(-n2nc(C(F)(F)F)cc2C2CCN(CCCCO[N+](=O)[O-])CC2)cc1 | 132 | > 100 | 3.8 | 8.4 | – | –
